The source of these data is patent US20140371188A1, “COMPOSITIONS AND METHODS FOR INHIBITING MUSCLE ATROPHY AND INDUCING MUSCLE HYPERTROPHY” (UNIVERSITY OF IOWA RESEARCH FOUNDATION, priority 2011, published 2014).

Data set [1] relates to tibialis anterior (TA) muscle. Description: Ursolic acid i.p., recovery from immobilization-induced skeletal muscle atrophy after remobilization. The class given is in vivo, mouse. Particulars: TA immobilized 7 days, then remobilized; 200 mg/kg i.p. twice daily started at remobilization; vs vehicle.
For data set [2], the system named is immobilized tibialis anterior (TA) muscle. Description: Ursolic acid i.p., immobilization-induced skeletal muscle atrophy (TA weight, fiber diameter). In kind it is in vivo, C57BL/6 mice. The following applies: 200 mg/kg i.p. twice a day from day 0; TA immobilized day 2; harvest day 8; vs vehicle (corn oil). As for the experimental part: (§1) (A-E) Beginning on day 0, 6-8 wk old male C57BL/6 mice were given i.p. injections of ursolic acid (200 mg/kg) or an equal volume of vehicle (corn oil) twice a day. On day 2, the left tibialis anterior (TA) muscle of each mouse was immobilized. During immobilization, vehicle or ursolic acid continued to be administered via i.p. injection twice daily, and the right TA remained mobile and served as an intrasubject control. (A) On day 5, mice were euthanized and bilateral TA muscles were harvested. mRNA levels were determined with qPCR. In each mouse, mRNA levels from the immobile TA were normalized to values from the mobile TA, which were set at one. Data are means±SEM from ≧6 mice per condition. * P<0.05. (B-E) On day 8, bilateral TA muscles were harvested and weighed. (B) Effect of ursolic acid on skeletal muscle weight. In each mouse, the left (immobile) TA weight was normalized to the right (mobile) TA weight. Data are means±SEM from 10 mice per condition; ***P<0.001 by unpaired t-test. (C-E) Effect of ursolic acid on skeletal muscle fiber diameter. (C) Data are mean fiber diameters ±SEM from 10 immobilized TA muscles per condition; ***P<0.0001 by unpaired t-test. (D) Representative cross-sections of muscle fibers immunostained with anti-laminin antibody. (E) Data are fiber size distributions of >3000 fibers from 10 immobilized TA muscles per condition. […]

Another data set has as its system Gadd45a mRNA. Put plainly: Ursolic acid i.p., Gadd45a mRNA by qPCR in immobilized TA muscle. In kind it is in vivo, C57BL/6 mice. The following applies: ursolic acid 200 mg/kg i.p. twice a day from day 0; TA immobilized day 2; harvest day 5; vs vehicle (corn oil). The procedure: as §1, with “diameter.” for “diameter. (C) Data are mean fiber diameters ±SEM from 10 immobilized TA muscles per condition; ***P<0.0001 by unpaired t-test. (D) Representative cross-sections of muscle fibers immunostained with anti-laminin antibody. (E) Data are fiber size distributions of >3000 fibers from 10 immobilized TA muscles per condition.”
(§2) Exon Arrays and Quantitative Real-Time RT-PCR (qPCR) in Muscle and Myotubes—Extraction of skeletal muscle RNA and RNA hybridizations to Mouse Exon 1.0 ST arrays (Affymetrix) were performed as described previously (Ebert, S. M., et al. (2010) Mol. Endocrinol. 24, 790-799). […]

The next data set deals with Cdkn1a mRNA. Put plainly: Ursolic acid i.p., Cdkn1a mRNA by qPCR in immobilized TA muscle. The class given is in vivo, C57BL/6 mice. Particulars: ursolic acid 200 mg/kg i.p. twice a day from day 0; TA immobilized day 2; harvest day 5; vs vehicle (corn oil). As for the experimental part: as §1, with “diameter.” for “diameter. (C) Data are mean fiber diameters ±SEM from 10 immobilized TA muscles per condition; ***P<0.0001 by unpaired t-test. (D) Representative cross-sections of muscle fibers immunostained with anti-laminin antibody. (E) Data are fiber size distributions of >3000 fibers from 10 immobilized TA muscles per condition.”
as §2

Data set [3] deals with T1, growth hormone receptor (GHR) (Mus musculus, UniProt P16882).
T1 construct: endogenous in cells; host or cells: C2C12 mouse myoblasts (ATCC CRL-1772), serum-starved for 6 hours
T1 sequence (P16882 25-650): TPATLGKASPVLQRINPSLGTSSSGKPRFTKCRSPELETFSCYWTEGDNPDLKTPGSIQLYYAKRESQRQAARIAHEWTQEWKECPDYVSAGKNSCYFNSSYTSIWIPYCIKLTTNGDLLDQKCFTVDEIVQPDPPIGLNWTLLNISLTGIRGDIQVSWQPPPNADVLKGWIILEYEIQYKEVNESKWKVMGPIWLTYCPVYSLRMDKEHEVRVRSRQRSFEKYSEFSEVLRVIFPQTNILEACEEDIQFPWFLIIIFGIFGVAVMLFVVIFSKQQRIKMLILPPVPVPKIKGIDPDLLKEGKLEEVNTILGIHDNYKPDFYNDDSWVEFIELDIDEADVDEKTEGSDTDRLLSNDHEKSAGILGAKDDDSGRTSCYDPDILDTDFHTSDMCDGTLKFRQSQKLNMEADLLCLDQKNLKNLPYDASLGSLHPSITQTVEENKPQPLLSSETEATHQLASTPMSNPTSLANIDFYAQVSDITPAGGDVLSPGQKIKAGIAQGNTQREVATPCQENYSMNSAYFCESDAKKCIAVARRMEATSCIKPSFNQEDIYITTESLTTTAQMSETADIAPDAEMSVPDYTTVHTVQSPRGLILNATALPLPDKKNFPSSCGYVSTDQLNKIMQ
Description: GHR phosphorylation in serum-starved C2C12 myoblasts (anti-GHR immunoprecipitation, phospho-tyrosine immunoblot). In kind it is cell-based. The following applies: ursolic acid 10 μM, 2 minutes; C2C12 myoblasts serum-starved 6 hours; absence or presence of recombinant human growth hormone 100 ng/ml. The procedure:
(§3) (A) C57BL/6 mice were fed diets lacking or containing 0.14% ursolic acid for 6 weeks before quadriceps muscles were harvested for qPCR analysis of the indicated mRNAs. mRNA levels in ursolic acid-treated mice were normalized to mRNA levels in control mice, which were set at one. Data are means±SEM from 10 mice per condition; *P<0.05, **P<0.01. (B) Cultured C2C12 myoblasts were serum-starved for 6 hours, and then incubated for 2 minutes in the absence or presence of ursolic acid (10 μM) and/or recombinant human growth hormone (100 ng/ml), as indicated. Total cellular protein extracts were subjected to immunoprecipitation with anti-GHR antibody, followed by immunoblot analysis with anti-phospho-tyrosine or anti-GHR antibodies to assess phospho-GHR and total GHR, respectively.
C2C12 Myotube Culture and Infection—Mouse C2C12 myoblasts were obtained from ATCC (CRL-1772), and maintained at 37° C. and 5% CO2 in Dulbecco's modified Eagle's medium (DMEM) (ATCC #30-2002) containing antibiotics (100 units/ml penicillin, 100 μg/ml streptomycin sulfate) and 10% (v/v) fetal bovine serum (FBS). Myoblasts were set up for experiments on day 0 in 6-well plates at a density of 2.5×10^5 cells/well. On day 2, differentiation was induced by replacing 10% FBS with 2% horse serum. On day 7, cells were rinsed once with PBS, and then 1 ml DMEM containing adenovirus was added to each well. […]
On the technique in general: A western blot detects proteins with antibodies after separation by electrophoresis.

The conditions of data set [4]: general statement, no test described; cited from earlier work.
Data set [5] concerns quadriceps muscle mRNAs (IGF-I, Ar, Ppargc1a, Tfam, Nos1, Vegfa, Hk2). Description: Diet containing 0.14% ursolic acid, qPCR of quadriceps muscle mRNAs. The class given is in vivo, C57BL/6 mice. Particulars: diet containing 0.14% ursolic acid for 6 weeks, vs control diet. The procedure: as §3
Exon Arrays and Quantitative Real-Time RT-PCR (qPCR) in Muscle and Myotubes—Extraction of skeletal muscle RNA and RNA hybridizations to Mouse Exon 1.0 ST arrays (Affymetrix) were performed as described previously (Ebert, S. M., et al. (2010) Mol. Endocrinol. 24, 790-799). Exon expression arrays examining the effects of Gadd45a overexpression, fasting and muscle denervation in TA muscles of C57BL/6 mice were described previously (Banduseela, V. C., et al. (2009) Physiol. Genomics 39, 141-159; Welle, S., et al. (2004) Exp. Gerontol. 39, 369-377) and can be found in the NCBI Gene Expression Omnibus under GEO Series accession numbers GSE39196, GSE20103 and GSE39195, respectively. Myotube RNA was extracted using TRIzol solution (Invitrogen), and then purified using the RNeasy kit and RNase Free DNase Set (Qiagen). qPCR analyses of mRNAs encoding mouse ATF4, Gadd45a, Bax, caspase-3 (Casp3), androgen receptor (Ar), thyroid hormone receptor-α (Thra), growth hormone receptor (Ghr), hexokinase 2 (Hk2), Suclg1, Coxl1, Tfam, Nos1, MuRF1 (Trim63), atrogin-1 (Fbxo32), cathepsin L (Ctsl), Bnip3, Cdkn1a, PGC-1α (Ppargc1a), GLUT4 (S1c2a4), LC3a (Mapl1c3a) and Vegfa were performed using TaqMan Gene Expression Assays (Applied Biosystems). For qPCR studies, first strand cDNA was synthesized in a 20 μl reaction that contained 2 μg of RNA, random hexamer primers and components of the High Capacity cDNA reverse transcription kit (Applied Biosystems). qPCR was carried out using a 7500 Fast Real-Time PCR System (Applied Biosystems). All qPCR reactions were performed in triplicate and the cycle threshold (Ct) values were averaged to give the final results. To analyze the data, the ΔCt method was used, with level of 36B4 mRNA serving as the invariant control.
To test this, C57BL/6 mice were fed diets lacking or containing 0.14% ursolic acid for 6 weeks before quadriceps muscles were harvested for qPCR analysis. […] These effects of ursolic acid are consistent with ursolic acid's capacity to decrease Gadd45a and Cdkn1a expression.
Background: In qPCR the cycle at which signal appears reflects the starting amount.

“3-β-hydroxy-urs-12-en-28-oic acid [ursolic acid]”: in data set [1], the “recovery of skeletal muscle mass after remobilization” value was “significantly enhanced the recovery of skeletal muscle mass”. Also, in data set [2], the “TA muscle weight, left (immobile) normalized to right (mobile)” value is recorded as “reduced the loss of muscle mass” and the “size (diameter) of skeletal muscle fibers in immobilized TA muscles” value is “increased the size of skeletal muscle fibers”. Moreover, the “Gadd45a mRNA, immobile TA normalized to mobile TA” value with Gadd45a mRNA is “prevented induction”. For the same substance, in the data set with Cdkn1a mRNA, the “Cdkn1a mRNA, immobile TA normalized to mobile TA” value is on record as “prevented induction”. For the same substance, the “GHR phosphorylation (phospho-GHR vs total GHR)” value in data set [3] was “increased GHR phosphorylation”. Moreover, the water solubility entry in data set [4] is listed as “highly water-insoluble”. For the same substance, in data set [5], the “Hk2 mRNA in quadriceps” value is “increased”, the “IGF-I mRNA in quadriceps” value was “increased”, the “Nos1 mRNA in quadriceps” value is “increased” and the “PGC-1α (Ppargc1a) mRNA in quadriceps” value is recorded as “increased”. For the same substance, in data set [5], the “Tfam mRNA in quadriceps” value was “increased”, the “Vegfa mRNA in quadriceps” value is reported as “increased” and the “androgen receptor (Ar) mRNA in quadriceps” value is reported as “increased”.
